Calls of active or inactive are those of the source. How the source made its calls: active means viability on the fitted dose curve at most 10% of control; inactive means the rest.
Test system: 292921-168-R-J2-PDC KRAS tumor spheroid viability
Assay: Anticancer human tumor 292921-168-R-J2-PDC patient-derived pancreatic carcinoma cell line growth inhibition [KRAS2]
Settings: spheroids with HUVEC and MSC; for IC50: curve of first compound; for viability, T/C: stronger effect = lower value
Procedure, shortened: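 KRAS-mutant tumor cells were grown as spheroids with HUVEC endothelial cells and human MSCs as stroma. Targeted agents were tested alone and with KRAS pathway inhibitors. Doses started at or near clinical Cmax, or 10 microM, descending half-log.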

[1] = second compound 0.1 µM, first compound 0.000316 µM
[2] = second compound 0.1 µM, first compound 0.001 µM
[3] = second compound 0.1 µM, first compound 0.00316 µM
[4] = second compound 0.1 µM, first compound 0.01 µM
[5] = second compound 0.1 µM, first compound 0.0316 µM
[6] = second compound 0.1 µM, first compound 0.1 µM
[7] = second compound 0.316 µM, first compound 0.000316 µM
[8] = second compound 0.316 µM, first compound 0.001 µM
[9] = second compound 0.316 µM, first compound 0.00316 µM
[10] = second compound 0.316 µM, first compound 0.01 µM
[11] = second compound 0.316 µM, first compound 0.0316 µM
[12] = second compound 0.316 µM, first compound 0.1 µM
[13] = second compound 1 µM, first compound 0.000316 µM
[14] = second compound 1 µM, first compound 0.001 µM
[15] = second compound 1 µM, first compound 0.00316 µM
[16] = second compound 1 µM, first compound 0.01 µM
[17] = second compound 1 µM, first compound 0.0316 µM
[18] = second compound 1 µM, first compound 0.1 µM
[19] = second compound 3.16 µM, first compound 0.000316 µM
[20] = second compound 3.16 µM, first compound 0.001 µM
[21] = second compound 3.16 µM, first compound 0.00316 µM
[22] = second compound 3.16 µM, first compound 0.01 µM
[23] = second compound 3.16 µM, first compound 0.0316 µM
[24] = second compound 3.16 µM, first compound 0.1 µM
[25] = second compound 10 µM, first compound 0.000316 µM
[26] = second compound 10 µM, first compound 0.001 µM
[27] = second compound 10 µM, first compound 0.00316 µM
[28] = second compound 10 µM, first compound 0.01 µM
[29] = second compound 10 µM, first compound 0.0316 µM
[30] = second compound 10 µM, first compound 0.1 µM
[31] = second compound 0.1 µM, first compound 0.316 µM
[32] = second compound 0.1 µM, first compound 1 µM
[33] = second compound 0.316 µM, first compound 0.316 µM
[34] = second compound 0.316 µM, first compound 1 µM
[35] = second compound 1 µM, first compound 0.316 µM
[36] = second compound 1 µM, first compound 1 µM
[37] = second compound 3.16 µM, first compound 0.316 µM
[38] = second compound 3.16 µM, first compound 1 µM
[39] = second compound 10 µM, first compound 0.316 µM
[40] = second compound 10 µM, first compound 1 µM
[41] = second compound 0.1 µM, first compound 3.16 µM
[42] = second compound 0.1 µM, first compound 10 µM
[43] = second compound 0.316 µM, first compound 3.16 µM
[44] = second compound 0.316 µM, first compound 10 µM
[45] = second compound 1 µM, first compound 3.16 µM
[46] = second compound 1 µM, first compound 10 µM
[47] = second compound 3.16 µM, first compound 3.16 µM
[48] = second compound 3.16 µM, first compound 10 µM
[49] = second compound 10 µM, first compound 3.16 µM
[50] = second compound 10 µM, first compound 10 µM
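Wherever IC50 is given: drug exposure lasted seven days after spheroids formed for three days.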
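Wherever viability, T/C is given: drug exposure lasted seven days after spheroids formed for three days; percent of DMSO vehicle control viability which is 100%.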

SMILES | IC50 (second compound 0.1 µM) [nM] | IC50 (second compound 0.316 µM) [nM] | IC50 (second compound 1 µM) [nM] | IC50 (second compound 3.16 µM) [nM] | IC50 (second compound 10 µM) [nM] | viability, T/C [3] [%] | viability, T/C [4] [%] | viability, T/C [5] [%] | viability, T/C [6] [%] | viability, T/C [9] [%] | viability, T/C [10] [%] | viability, T/C [11] [%] | viability, T/C [12] [%] | viability, T/C [15] [%] | viability, T/C [17] [%] | viability, T/C [18] [%] | viability, T/C [23] [%] | viability, T/C [24] [%] | viability, T/C [29] [%] | viability, T/C [30] [%] | further results
Cn1ncnc1[C@H]1c2n[nH]c(=O)c3cc(F)cc(c23)N[C@@H]1c1ccc(F)cc1 + COc1cc2nc(C)nc(NC(C)c3cc(N)cc(C(F)(F)F)c3)c2cc1OC1CCOC1 | > 100 | > 100 | > 100 | 37.3 | < 0.316 | 85.8 | 85.7 | 68.6 | 60.5 | 84.8 | 84.4 | 70.3 | 64.3 | 74.9 | 69.6 | 57.4 | 52.1 | 42 | 23.6 | 23.9 | viability, T/C [1]: 93.5%; viability, T/C [2]: 92.1%; viability, T/C [7]: 84.2%; viability, T/C [8]: 87%; viability, T/C [13]: 84%; viability, T/C [14]: 84.9%; viability, T/C [16]: 73.3%; viability, T/C [19]: 63.5%; viability, T/C [20]: 60.1%; viability, T/C [21]: 56.4%; viability, T/C [22]: 57.7%; viability, T/C [25]: 26.1%; viability, T/C [26]: 27.6%; viability, T/C [27]: 30.6%; viability, T/C [28]: 22.6%
CCN1CCN(Cc2ccc(Nc3ncc(F)c(-c4cc(F)c5nc(C)n(C(C)C)c5c4)n3)nc2)CC1 + COc1cc2nc(C)nc(NC(C)c3cc(N)cc(C(F)(F)F)c3)c2cc1OC1CCOC1 | 20.7 | 13.2 | 9.76 | 3.28 | < 3.16 | 74.7 | 60.1 | 42.2 | 36 | 67.4 | 54.1 | 39.2 | 32.8 | 60.7 | 40.3 | 30.8 | 30.8 | 22.9 | 14.7 | 14.8 | viability, T/C [31]: 29.8%; viability, T/C [32]: 22.2%; viability, T/C [33]: 28.4%; viability, T/C [34]: 22.1%; viability, T/C [16]: 49.7%; viability, T/C [35]: 25.7%; viability, T/C [36]: 21.3%; viability, T/C [21]: 51%; viability, T/C [22]: 35.6%; viability, T/C [37]: 22%; viability, T/C [38]: 18.6%; viability, T/C [27]: 22.8%; viability, T/C [28]: 15.9%; viability, T/C [39]: 12.2%; viability, T/C [40]: 0.58%
O=C(c1cc(Cc2n[nH]c(=O)c3ccccc23)ccc1F)N1CCN(C(=O)C2CC2)CC1 + CC1OCC2(CCN(c3cnc(Sc4ccnc(N)c4Cl)c(N)n3)CC2)C1N | 7220 | 5520 | 8780 | < 31.6 | < 31.6 | – | – | 90.5 | 82.3 | – | – | 76.5 | 63.6 | – | 138 | 120 | 48 | 41.3 | 50.8 | 44.6 | viability, T/C [31]: 81.2%; viability, T/C [32]: 90.5%; viability, T/C [41]: 74.3%; viability, T/C [42]: 40.5%; viability, T/C [33]: 63.8%; viability, T/C [34]: 78%; viability, T/C [43]: 62.5%; viability, T/C [44]: 34.6%; viability, T/C [35]: 113%; viability, T/C [36]: 120%; viability, T/C [45]: 83.9%; viability, T/C [46]: 45.1%; viability, T/C [37]: 50.7%; viability, T/C [38]: 45.4%; viability, T/C [47]: 39.7%; viability, T/C [48]: 30.6%; outcome [39]: inactive; viability, T/C [40]: 38.6%; viability, T/C [49]: 34.4%; viability, T/C [50]: 27.6%
CC(C)n1nc(-c2ccc3oc(N)nc3c2)c2c(N)ncnc21 + CNCc1ccccc1-c1csc(C(C)Nc2nc(C)nc3cc(OC)c(OC)cc23)c1 | 3.06 | 2.08 | 0.991 | < 0.316 | < 0.316 | 50.2 | 36.2 | 25.3 | 23.7 | 43.3 | 33.5 | 24.5 | 21.5 | 33.6 | 22.7 | 19 | 0.67 | 0.43 | 0.85 | 0.31 | viability, T/C [1]: 76.3%; viability, T/C [2]: 63.9%; viability, T/C [7]: 79%; viability, T/C [8]: 60.7%; viability, T/C [13]: 74.4%; viability, T/C [14]: 50%; viability, T/C [16]: 25.7%; viability, T/C [19]: 1.37%; viability, T/C [20]: 0.62%; viability, T/C [21]: 0.91%; viability, T/C [22]: 0.17%; viability, T/C [25]: 0.08%; viability, T/C [26]: 0.56%; viability, T/C [27]: 0.08%; viability, T/C [28]: 0.09%
Cn1nccc1Nc1nccc(-c2cc3c(s2)C(C)(C)N(CCN2CCOCC2)C3=O)n1 + CC1OCC2(CCN(c3cnc(Sc4ccnc(N)c4Cl)c(N)n3)CC2)C1N | 39.3 | < 31.6 | < 31.6 | < 31.6 | < 31.6 | – | – | 54.5 | 30.8 | – | – | 37.1 | 25.7 | – | 33.9 | 21 | 26.3 | 19.7 | 24.1 | 17.6 | viability, T/C [31]: 19.1%; viability, T/C [32]: 11.7%; viability, T/C [41]: 10.5%; viability, T/C [42]: 11.7%; viability, T/C [33]: 12.6%; viability, T/C [34]: 10.9%; viability, T/C [43]: 8.88%; viability, T/C [44]: 9.52%; viability, T/C [35]: 13.1%; viability, T/C [36]: 9.76%; viability, T/C [45]: 8.56%; viability, T/C [46]: 9.6%; viability, T/C [37]: 12.6%; viability, T/C [38]: 8.37%; viability, T/C [47]: 8.01%; viability, T/C [48]: 8.06%; viability, T/C [39]: 11%; viability, T/C [40]: 8.12%; viability, T/C [49]: 6.93%; viability, T/C [50]: 7.35%

— PubChem BioAssay AID1963870 (Molecular Pharmacology Branch, DTP, NCI, 2024)
